Measured values published in patent US20230015823A1, “METHODS OF ADMINISTERING VOXELOTOR” (Global Blood Therapeutics, Inc., priority 2019, published 2023).

Molecular target: CYP3A4 (Homo sapiens, UniProt P08684)
Assay: Effect of voxelotor on PK of CYP3A4 probe substrate midazolam in healthy subjects
Conditions: healthy subjects
Procedure: During Period 1, subjects received a single dose of caffeine 100 mg, warfarin sodium 10 mg+vitamin K 10 mg, omeprazole 20 mg, and midazolam hydrochloride 2 mg on Day 1. During Period 2, subjects received voxelotor 900 mg QD on Days 1 and 2 followed by 600 mg QD on Day 3, a single dose of caffeine 100 mg, warfarin sodium 10 mg+vitamin K 10 mg, omeprazole 20 mg, and midazolam hydrochloride 2 mg on Day 4, and voxelotor 600 mg QD on Days 4 through 7.
Whole blood and plasma concentrations of voxelotor and plasma concentrations of caffeine, paraxanthine, S-warfarin, omeprazole, 5-hydroxyomeprazole, midazolam, and 1-hydroxymidazolam were determined using validated assays.

Chain of CYP3A4 (P08684 whole entry): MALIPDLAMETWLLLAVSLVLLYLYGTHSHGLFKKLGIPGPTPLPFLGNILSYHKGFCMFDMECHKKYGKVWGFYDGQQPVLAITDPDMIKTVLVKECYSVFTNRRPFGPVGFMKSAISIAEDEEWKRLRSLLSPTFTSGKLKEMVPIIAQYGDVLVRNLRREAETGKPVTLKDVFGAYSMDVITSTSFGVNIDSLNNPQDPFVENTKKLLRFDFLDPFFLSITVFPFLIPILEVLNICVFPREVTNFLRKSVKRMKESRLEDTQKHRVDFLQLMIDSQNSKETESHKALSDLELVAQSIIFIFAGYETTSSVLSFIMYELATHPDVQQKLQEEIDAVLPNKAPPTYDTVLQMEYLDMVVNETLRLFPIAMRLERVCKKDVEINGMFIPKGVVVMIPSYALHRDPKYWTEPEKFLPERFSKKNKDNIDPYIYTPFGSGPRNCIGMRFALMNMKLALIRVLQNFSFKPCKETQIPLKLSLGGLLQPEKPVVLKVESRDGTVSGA

Row | Structure (SMILES) | observed exposure increase with voxelotor (CYP3A4 substrate midazolam) [fold] | increase of overall exposure in the presence of voxelotor (midazolam hydrochloride 2 mg single dose, voxelotor 900/600 mg QD) [%] | increase of overall exposure of metabolite in the presence of voxelotor (midazolam metabolite, voxelotor 900/600 mg QD) [%]
1 | Cc1ncc2n1-c1ccc(Cl)cc1C(c1ccccc1F)=NC2 [midazolam] | 1.6 | 63 | –
2 | OCc1ncc2n1-c1ccc(Cl)cc1C(c1ccccc1F)=NC2 [1′-hydroxy-midazolam] | – | – | 75
